From publication PMC5218480 (PLoS ONE, 2017) come the findings set out here.

The test system of this assay is MV-4-11 cells. Kind of assay: Gene expression microarray analysis (Affymetrix PrimeView) and GSEA. Type of assay: cell-based, human. Further details: RFU PODN (11730768_x_at) / Fold change /veh PODN (11730768_x_at) / RFU LINC00158 (11744669_a_at) / Fold change /veh LINC00158 (11744669_a_at) / RFU DUSP10 (11751237_a_at) / Fold change /veh DUSP10 (11751237_a_at) / RFU ID3 (11757404_x_at) / Fold change /veh ID3 (11757404_x_at) / RFU PLEKHG5 (11737974_s_at) / Fold change /veh PLEKHG5 (11737974_s_at) / RFU LRRC4B (11730491_at) / Fold change /veh LRRC4B (11730491_at) / RFU GIMAP4 (11747438_a_at) / Fold change /veh GIMAP4 (11747438_a_at) / RFU KRT8 (11758183_x_at) / Fold change /veh KRT8 (11758183_x_at) / RFU CNN1 (11734310_a_at) / Fold change /veh CNN1 (11734310_a_at) / RFU VPS37D (11726825_at) / Fold change /veh VPS37D (11726825_at) / RFU C10orf10 (11716522_x_at) / Fold change /veh C10orf10 (11716522_x_at) / RFU KIR2DL2 /// KIR2DL4 /// KIR2DL5A /// KIR2DL5B /// KIR2DS1 /// KIR2DS2 /// KIR2DS3 /// KIR2DS4 /// KIR3DL3 /// KIR3DL3 /// KIR3DS1 (11738374_at) / Fold change /veh KIR2DL2 /// KIR2DL4 /// KIR2DL5A /// KIR2DL5B /// KIR2DS1 /// KIR2DS2 /// KIR2DS3 /// KIR2DS4 /// KIR3DL3 /// KIR3DL3 /// KIR3DS1 (11738374_at) / RFU C1QL1 (11718748_at) / Fold change /veh C1QL1 (11718748_at) / RFU TMPRSS4 (11747572_a_at) / Fold change /veh TMPRSS4 (11747572_a_at) / RFU HAMP (11756126_x_at) / Fold change /veh HAMP (11756126_x_at) / RFU RNFT2 (11725882_a_at) / Fold change /veh RNFT2 (11725882_a_at) / RFU NR4A2 (11747474_a_at) / Fold change /veh NR4A2 (11747474_a_at) / RFU ABCC12 (11746883_a_at) / Fold change /veh ABCC12 (11746883_a_at) / RFU TMEM136 (11760407_x_at) / Fold change /veh TMEM136 (11760407_x_at) / RFU CLDN22 /// WWC2 (11732394_at) / Fold change /veh CLDN22 /// WWC2 (11732394_at) / RFU HLA-DPB1 (11760878_x_at) / Fold change /veh HLA-DPB1 (11760878_x_at) / RFU SPINT1 (11716480_a_at) / Fold change /veh SPINT1 (11716480_a_at) / RFU GAP43 (11754022_s_at) / Fold change /veh GAP43 (11754022_s_at) / RFU A4GNT (11735810_at) / Fold change /veh A4GNT (11735810_at) / RFU PRB3 (11715151_x_at) / Fold change /veh PRB3 (11715151_x_at) / RFU TUBB4B (11761932_at) / Fold change /veh TUBB4B (11761932_at) / RFU CAPN14 (11732068_a_at) / Fold change /veh CAPN14 (11732068_a_at) / RFU TMCC2 (11721928_a_at) / Fold change /veh TMCC2 (11721928_a_at) / RFU IRGQ (11745062_a_at) / Fold change /veh IRGQ (11745062_a_at) / RFU FAM174B (11720279_a_at) / Fold change /veh FAM174B (11720279_a_at) / RFU TMPRSS4 (11748680_a_at) / Fold change /veh TMPRSS4 (11748680_a_at) / RFU FAM212B (11763350_a_at) / Fold change /veh FAM212B (11763350_a_at) / RFU PLEKHG5 (11743358_a_at) / Fold change /veh PLEKHG5 (11743358_a_at) / RFU ZSCAN30 (11745921_a_at) / Fold change /veh ZSCAN30 (11745921_a_at) / RFU CMKLR1 (11741424_a_at) / Fold change /veh CMKLR1 (11741424_a_at) / RFU LOC101060620 /// MAPK8IP1 (11723275_at) / Fold change /veh LOC101060620 /// MAPK8IP1 (11723275_at) / RFU SPTSSB (11747773_x_at) / Fold change /veh SPTSSB (11747773_x_at) / RFU PRSS12 (11739890_at) / Fold change /veh PRSS12 (11739890_at) / RFU BIN1 (11741810_x_at) / Fold change /veh BIN1 (11741810_x_at) / RFU WNT11 (11732464_a_at) / Fold change /veh WNT11 (11732464_a_at) / RFU C10orf10 (11716521_a_at) / Fold change /veh C10orf10 (11716521_a_at) / RFU C5orf56 (11738089_at) / Fold change /veh C5orf56 (11738089_at) / RFU CYB561 (11721691_x_at) / Fold change /veh CYB561 (11721691_x_at) / RFU ANKRD19P (11752326_a_at) / Fold change /veh ANKRD19P (11752326_a_at) / RFU OR2T12 /// OR2T33 /// OR2T8 (11738714_s_at) / Fold change /veh OR2T12 /// OR2T33 /// OR2T8 (11738714_s_at) / RFU VCAN (11748164_a_at) / Fold change /veh VCAN (11748164_a_at) / RFU JSRP1 (11732532_at) / Fold change /veh JSRP1 (11732532_at) / RFU KRTAP10-11 (11738290_x_at) / Fold change /veh KRTAP10-11 (11738290_x_at) / RFU MYO3A (11730013_a_at) / Fold change /veh MYO3A (11730013_a_at) / RFU EBF3 (11725865_a_at) / Fold change /veh EBF3 (11725865_a_at) / RFU CAMK2N1 (11719241_x_at) / Fold change /veh CAMK2N1 (11719241_x_at) / RFU C5orf56 (11738088_a_at) / Fold change /veh C5orf56 (11738088_a_at) / RFU OLFML3 (11715873_a_at) / Fold change /veh OLFML3 (11715873_a_at) / RFU LOC100653217 /// NTM (11731650_a_at) / Fold change /veh LOC100653217 /// NTM (11731650_a_at) / RFU MAPK11 (11762145_a_at) / Fold change /veh MAPK11 (11762145_a_at) / RFU FIZ1 (11724087_x_at) / Fold change /veh FIZ1 (11724087_x_at) / RFU OASL (11726364_x_at) / Fold change /veh OASL (11726364_x_at) / RFU SOX15 (11748057_x_at) / Fold change /veh SOX15 (11748057_x_at) / RFU CD79A (11719716_a_at) / Fold change /veh CD79A (11719716_a_at) / RFU HIST1H1D (11736915_at) / Fold change /veh HIST1H1D (11736915_at) / RFU CASKIN2 (11723855_a_at) / Fold change /veh CASKIN2 (11723855_a_at) / RFU LOC730098 (11760151_x_at) / Fold change /veh LOC730098 (11760151_x_at) / RFU OR4N2 (11742367_at) / Fold change /veh OR4N2 (11742367_at) / RFU PRRT2 (11749266_a_at) / Fold change /veh PRRT2 (11749266_a_at) / RFU SNX32 (11753110_a_at) / Fold change /veh SNX32 (11753110_a_at) / RFU CDHR5 (11726645_a_at) / Fold change /veh CDHR5 (11726645_a_at) / RFU RCAN1 (11760418_a_at) / Fold change /veh RCAN1 (11760418_a_at) / RFU FAM167A (11723789_a_at) / Fold change /veh FAM167A (11723789_a_at) / RFU FAM26E (11764081_at) / Fold change /veh FAM26E (11764081_at) / RFU ISYNA1 (11749810_s_at) / Fold change /veh ISYNA1 (11749810_s_at) / RFU ACY1 (11761880_at) / Fold change /veh ACY1 (11761880_at) / RFU 11764098_at / Fold change /veh 11764098_at / RFU SAMD14 (11745864_x_at) / Fold change /veh SAMD14 (11745864_x_at) / RFU NPB (11741838_a_at) / Fold change /veh NPB (11741838_a_at) / RFU TMPRSS6 (11731388_a_at) / Fold change /veh TMPRSS6 (11731388_a_at) / RFU KRTAP10-2 (11738614_at) / Fold change /veh KRTAP10-2 (11738614_at) / RFU ARHGAP8 /// PRR5-ARHGAP8 (11727945_x_at) / Fold change /veh ARHGAP8 /// PRR5-ARHGAP8 (11727945_x_at) / RFU KRTAP5-7 /// NADSYN1 (11734609_at) / Fold change /veh KRTAP5-7 /// NADSYN1 (11734609_at) / RFU RASL12 (11751679_a_at) / Fold change /veh RASL12 (11751679_a_at) / RFU CDKN2B (11736163_a_at) / Fold change /veh CDKN2B (11736163_a_at) / RFU PRF1 (11729649_at) / Fold change /veh PRF1 (11729649_at) / RFU, ZNF638 /// ZNF638-IT1 / Fold change vs veh, ZNF638 /// ZNF638-IT1 / RFU, PANK3 / Fold change vs veh, PANK3 / RFU, SH3YL1 / Fold change vs veh, SH3YL1 / RFU, ZEB2 / Fold change vs veh, ZEB2 / RFU, NRIP1 / Fold change vs veh, NRIP1 / RFU, PTTG1IP / Fold change vs veh, PTTG1IP / RFU, CAPN2 / Fold change vs veh, CAPN2 / RFU, MED14 / Fold change vs veh, MED14 / RFU, SNORA58 / Fold change vs veh, SNORA58 / RFU, C1orf63 / Fold change vs veh, C1orf63 / RFU, LRRFIP1 / Fold change vs veh, LRRFIP1 / RFU, NDUFAF7 / Fold change vs veh, NDUFAF7 / RFU, SLC12A2 / Fold change vs veh, SLC12A2 / RFU, IBTK / Fold change vs veh, IBTK / RFU, ESF1 / Fold change vs veh, ESF1 / Fold change vs veh, TMEM50B / RFU, TAOK1 / Fold change vs veh, TAOK1 / RFU, ACBD3 / Fold change vs veh, ACBD3 / RFU, TMA16 / Fold change vs veh, TMA16 / RFU, RWDD3 / Fold change vs veh, RWDD3 / RFU, BCAT1 / Fold change vs veh, BCAT1 / RFU, EDEM3 / Fold change vs veh, EDEM3 / RFU, TMEM33 / Fold change vs veh, TMEM33 / RFU, WDR75 / Fold change vs veh, WDR75 / RFU, AHCTF1 / Fold change vs veh, AHCTF1 / RFU, TFRC / Fold change vs veh, TFRC / RFU, ZDHHC17 / Fold change vs veh, ZDHHC17 / RFU, NOM1 / Fold change vs veh, NOM1 / RFU, ARL8B / Fold change vs veh, ARL8B / RFU, ZBTB11 / Fold change vs veh, ZBTB11 / RFU, TAMM41 / Fold change vs veh, TAMM41 / RFU, KIAA1704 /// LOC100996395 / Fold change vs veh, KIAA1704 /// LOC100996395 / RFU, ING1 / Fold change vs veh, ING1 / RFU, TRMT61B / Fold change vs veh, TRMT61B / RFU, FUBP3 / Fold change vs veh, FUBP3 / RFU, TP53 / Fold change vs veh, TP53 / RFU, TNKS2 / Fold change vs veh, TNKS2 / RFU, ZFP14 / Fold change vs veh, ZFP14 / RFU, ACTR2 / Fold change vs veh, ACTR2 / RFU, PPP3R1 / Fold change vs veh, PPP3R1 / RFU, PIK3R1 / Fold change vs veh, PIK3R1 / RFU, HNRNPA1 / Fold change vs veh, HNRNPA1 / RFU, RNF170 / Fold change vs veh, RNF170 / RFU, ZNF28 / Fold change vs veh, ZNF28 / RFU, RNGTT / Fold change vs veh, RNGTT / RFU, OGT / Fold change vs veh, OGT / RFU, BRD1 / Fold change vs veh, BRD1 / RFU, MARS / Fold change vs veh, MARS / RFU, ZNF655 / Fold change vs veh, ZNF655 / RFU, FAHD1 / Fold change vs veh, FAHD1 / RFU, BDP1 / Fold change vs veh, BDP1 / RFU, LRRCC1 / Fold change vs veh, LRRCC1 / RFU, ARID1A / Fold change vs veh, ARID1A / RFU, ZNF146 / Fold change vs veh, ZNF146 / RFU, ZNF330 / Fold change vs veh, ZNF330 / RFU, GPN3 / Fold change vs veh, GPN3 / RFU, C9orf123 / Fold change vs veh, C9orf123 / RFU, N4BP2L2 / Fold change vs veh, N4BP2L2 / RFU, ARFIP1 / Fold change vs veh, ARFIP1 / RFU, FAM179B / Fold change vs veh, FAM179B / RFU, BCL10 / Fold change vs veh, BCL10 / RFU, UHRF1BP1L / Fold change vs veh, UHRF1BP1L / RFU, BET1 / Fold change vs veh, BET1 / RFU, CNOT2 / Fold change vs veh, CNOT2 / RFU, ZNF268 / Fold change vs veh, ZNF268 / Fold change vs veh, ZNF507 / RFU, DGCR2 / Fold change vs veh, DGCR2 / RFU, WDSUB1 / Fold change vs veh, WDSUB1 / Fold change vs veh, HSP90B1 /// MIR3652 / RFU, ADSS / Fold change vs veh, ADSS / RFU, GK / Fold change vs veh, GK / RFU, ZNF148 / Fold change vs veh, ZNF148 / RFU, TAF9 / Fold change vs veh, TAF9 / RFU, SLC1A5 / Fold change vs veh, SLC1A5 / RFU, SLMO2 / Fold change vs veh, SLMO2 / RFU, ABCC4 / Fold change vs veh, ABCC4 / RFU, LOC101060439 /// RAP1B / Fold change vs veh, LOC101060439 /// RAP1B / RFU, RFX7 / Fold change vs veh, RFX7 / RFU, GTPBP10 / Fold change vs veh, GTPBP10 / RFU, CNEP1R1 / Fold change vs veh, CNEP1R1 / RFU, BIVM-ERCC5 /// ERCC5 / Fold change vs veh, BIVM-ERCC5 /// ERCC5 / RFU, ILF3 / Fold change vs veh, ILF3 / RFU 11762660_at / Fold change /veh 11762660_at / RFU VCAN (11757783_s_at) / Fold change /veh VCAN (11757783_s_at) / RFU DDX43 (11728927_at) / Fold change /veh DDX43 (11728927_at) / RFU KRT8 (11758188_x_at) / Fold change /veh KRT8 (11758188_x_at) / RFU NKD1 (11759106_at) / Fold change /veh NKD1 (11759106_at) / RFU SRD5A1 (11742802_a_at) / Fold change /veh SRD5A1 (11742802_a_at) / RFU TPSAB1 /// TPSB2 (11721975_s_at) / Fold change /veh TPSAB1 /// TPSB2 (11721975_s_at) / RFU GSTM3 (11746129_a_at) / Fold change /veh GSTM3 (11746129_a_at) / RFU IL23R (11737362_x_at) / Fold change /veh IL23R (11737362_x_at) / RFU TMEM51 (11727254_a_at) / Fold change /veh TMEM51 (11727254_a_at) / RFU PIWIL2 (11732686_x_at) / Fold change /veh PIWIL2 (11732686_x_at) / RFU ORM1 (11744905_x_at) / Fold change /veh ORM1 (11744905_x_at) / RFU CCDC152 (11743942_at) / Fold change /veh CCDC152 (11743942_at) / RFU ECM1 (11717891_a_at) / Fold change /veh ECM1 (11717891_a_at) / RFU IL23R (11748794_a_at) / Fold change /veh IL23R (11748794_a_at) / RFU TNFAIP8L3 (11732012_x_at) / Fold change /veh TNFAIP8L3 (11732012_x_at) / RFU MBOAT4 (11741988_at) / Fold change /veh MBOAT4 (11741988_at) / RFU 11764193_at / Fold change /veh 11764193_at / RFU TMEM53 (11763286_at) / Fold change /veh TMEM53 (11763286_at) / RFU MAGEB2 (11727129_at) / Fold change /veh MAGEB2 (11727129_at) / RFU TMEM200A (11744735_a_at) / Fold change /veh TMEM200A (11744735_a_at) / RFU CCDC152 (11751479_a_at) / Fold change /veh CCDC152 (11751479_a_at) / RFU FAM211A (11726209_a_at) / Fold change /veh FAM211A (11726209_a_at) / RFU RGS16 (11746705_a_at) / Fold change /veh RGS16 (11746705_a_at) / RFU VCAN (11755009_s_at) / Fold change /veh VCAN (11755009_s_at) / RFU RHOB (11743442_s_at) / Fold change /veh RHOB (11743442_s_at) / RFU RGS16 (11720943_a_at) / Fold change /veh RGS16 (11720943_a_at) / RFU RGS16 (11720944_at) / Fold change /veh RGS16 (11720944_at) / RFU, VPS4B / Fold change vs veh, VPS4B / RFU, CREB1 / Fold change vs veh, CREB1 / RFU, DNAJC13 / Fold change vs veh, DNAJC13 / RFU, GNAQ / Fold change vs veh, GNAQ / RFU, CDK5R1 / Fold change vs veh, CDK5R1 / RFU, ZRANB3 / Fold change vs veh, ZRANB3 / RFU, CUL4A / Fold change vs veh, CUL4A / RFU, CCNY / Fold change vs veh, CCNY / RFU, UFL1 / Fold change vs veh, UFL1 / RFU, COG3 / Fold change vs veh, COG3 / RFU, DIAPH2 / Fold change vs veh, DIAPH2 / RFU, SKA2 / Fold change vs veh, SKA2 / RFU, AFF3 / Fold change vs veh, AFF3 / RFU, LMF1 / Fold change vs veh, LMF1 / RFU, IPO11 / Fold change vs veh, IPO11 / RFU, DFFB / Fold change vs veh, DFFB / RFU, FOXP1 / Fold change vs veh, FOXP1 / RFU, CARD8 / Fold change vs veh, CARD8 / RFU, STRN3 / Fold change vs veh, STRN3 / RFU, ADK / Fold change vs veh, ADK / RFU, RASSF2 / Fold change vs veh, RASSF2 / RFU, WIPF1 / Fold change vs veh, WIPF1 / RFU, LARP1B / Fold change vs veh, LARP1B / RFU, RASA1 / Fold change vs veh, RASA1 / RFU, RB1 / Fold change vs veh, RB1 / RFU, PPFIA1 / Fold change vs veh, PPFIA1 / RFU, MAT2A / Fold change vs veh, MAT2A / RFU, CCT5 / Fold change vs veh, CCT5 / RFU, WDR92 / Fold change vs veh, WDR92 / RFU, CUX1 / Fold change vs veh, CUX1 / RFU, TTC7A / Fold change vs veh, TTC7A / RFU, TMEM135 / Fold change vs veh, TMEM135 / RFU, DEPTOR / Fold change vs veh, DEPTOR / RFU, CPM / Fold change vs veh, CPM / RFU, DNAJB6 / Fold change vs veh, DNAJB6 / RFU, CACNA2D3 / Fold change vs veh, CACNA2D3 / RFU, DTX4 / Fold change vs veh, DTX4 / RFU, TFCP2 / Fold change vs veh, TFCP2 / RFU, GMCL1 /// GMCL1P1 / Fold change vs veh, GMCL1 /// GMCL1P1 / RFU, AEBP2 / Fold change vs veh, AEBP2 / RFU, SNHG1 /// SNORD22 /// SNORD25 /// SNORD26 /// SNORD27 /// SNORD28 /// SNORD29 /// SNORD31 / Fold change vs veh, SNHG1 /// SNORD22 /// SNORD25 /// SNORD26 /// SNORD27 /// SNORD28 /// SNORD29 /// SNORD31 / Fold change (Aza/veh), C12orf56 (ProbeSet 11735607_a_at) / Fold change (ACY-1035/veh), C12orf56 (ProbeSet 11735607_a_at) / Fold change (Aza/veh), FGFR1OP (ProbeSet 11751329_s_at) / Fold change (ACY-1035/veh), FGFR1OP (ProbeSet 11751329_s_at) / Fold change (Aza/veh), VPS36 (ProbeSet 11739960_a_at) / Fold change (ACY-1035/veh), VPS36 (ProbeSet 11739960_a_at) / RFU SYPL1 (11715823_x_at) / Fold change /veh SYPL1 (11715823_x_at) / RFU IGFBP7 (11715501_s_at) / Fold change /veh IGFBP7 (11715501_s_at) / RFU REEP3 (11722064_at) / Fold change /veh REEP3 (11722064_at) / RFU IGLL1 (11728026_x_at) / Fold change /veh IGLL1 (11728026_x_at): dose or concentration left out as unconfirmed. As to conditions: ProbeSet 11728443_a_at; LIST B.

Regarding `Nc1ncn([C@@H]2O[C@H](CO)[C@@H](O)[C@H]2O)c(=O)n1` [azacitidine], the “Fold change vs veh, TAOK1” value worked out at 0.96.
